Among the data in US7442794B2, “Rearranged pentanols, a process for their production and their use as anti-inflammatory agents” (Schering AG, priority 2003, dated 2008) are melting point and IC50 values, retold here.

The target of series [1] is glucocorticoid receptor (GR) (Homo sapiens, UniProt P04150). Briefly: biochemical. The source says: The binding of the substances to the glucocorticoid receptor (GR) and other steroid hormone receptors (mineral corticoid receptor (MR), progesterone receptor (PR) and androgen receptor (AR)) is examined with the aid of recombinantly produced receptors. Cytosol preparations of Sf9 cells, which had been infected with recombinant baculoviruses, which code for the GR, are used for the binding studies.
Chain of glucocorticoid receptor (GR) (P04150 whole entry, species assumed): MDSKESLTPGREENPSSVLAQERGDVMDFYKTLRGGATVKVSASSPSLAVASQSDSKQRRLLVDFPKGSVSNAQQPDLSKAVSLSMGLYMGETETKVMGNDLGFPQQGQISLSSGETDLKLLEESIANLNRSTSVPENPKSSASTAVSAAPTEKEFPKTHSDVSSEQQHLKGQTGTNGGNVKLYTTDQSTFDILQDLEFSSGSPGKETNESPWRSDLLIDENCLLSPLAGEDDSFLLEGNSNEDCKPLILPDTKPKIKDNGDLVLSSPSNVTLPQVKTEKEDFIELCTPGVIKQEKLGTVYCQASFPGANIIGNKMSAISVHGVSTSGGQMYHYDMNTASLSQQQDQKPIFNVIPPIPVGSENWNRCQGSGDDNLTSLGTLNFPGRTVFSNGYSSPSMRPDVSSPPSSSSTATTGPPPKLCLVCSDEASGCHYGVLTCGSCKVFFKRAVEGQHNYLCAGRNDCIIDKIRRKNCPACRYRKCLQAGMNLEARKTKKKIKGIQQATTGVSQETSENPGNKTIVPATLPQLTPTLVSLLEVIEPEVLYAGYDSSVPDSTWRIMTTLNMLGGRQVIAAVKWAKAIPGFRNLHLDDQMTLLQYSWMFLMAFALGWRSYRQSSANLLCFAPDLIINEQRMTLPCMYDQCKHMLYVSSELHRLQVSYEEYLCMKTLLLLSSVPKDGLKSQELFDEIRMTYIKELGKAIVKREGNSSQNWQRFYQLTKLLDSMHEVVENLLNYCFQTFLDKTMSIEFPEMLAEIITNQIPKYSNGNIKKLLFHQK

The subject of series [2] is secretion of cytokine IL-8 in human monocyte cell line THP-1 triggered by lipopolysaccharide (LPS). Briefly: Inhibition of LPS-triggered secretion of cytokine IL-8 in THP-1 cells (ELISA). In kind it is cell-based. The settings on record: LPS-triggered IL-8 secretion, THP-1, supernatant ELISA, read-out: inhibition IC50(IL8). Here is the method: The concentration of the cytokines was determined in the supernatant by means of commercially available ELISA kits.

With `C=C(C)CC(O)(C(Nc1ccc(F)c2nc(C)ncc12)c1ccc(Cl)cc1OC)C(F)(F)F` (racemic) [Example 7, 2-{4-Chloro-alpha-[(8-fluoro-2-methylquinazolin-5-yl)amino]-2-methoxybenzyl}-1,1,1-trifluoro-4-methylpent-4-en-2-ol], the melting point (usually the temperature of the solid-liquid transition) fell in the range of 72 to 73 °C.

Take `C=C(C)CC(O)(C(Nc1cccc2c(=O)[nH]ccc12)c1cc(Br)ccc1O)C(F)(F)F` (stereo not drawn) [Example 3, 5-{[1-(5-Bromo-2-hydroxyphenyl)-2-hydroxy-4-methyl-2-(trifluoromethyl)-pent-4-en-1-yl]amino}-isoquinolin-1(2H)-one]: the values for the IC50 in series [1] and in series [2] were 64 nM and 25 nM, respectively.
